# Assay results as given in ChEMBL document CHEMBL5104090, “Recent advances in the medicinal chemistry of carbonic anhydrase inhibitors” (Eur J Med Chem, 2021).
# What was measured:
# Carbonic anhydrase 1 [1] = target: T1, Carbonic anhydrase 1 (Homo sapiens, UniProt P00915)
# Carbonic anhydrase 2 [2] = target: T2, Carbonic anhydrase 2 (Homo sapiens, UniProt P00918)
# HT-1080 = experiment: cells; type: functional, cell-based; conditions: Homo sapiens, HT-1080, 48 h
# Description: Cytotoxicity against human HT-1080 cells assessed as cell growth inhibition measured after 48 hrs by MTT assay
# SH-SY5Y = experiment: cells; type: functional, cell-based; conditions: Homo sapiens, 48 h
# Description: Cytotoxicity against human SH-SY5Y cells assessed as cell growth inhibition measured after 48 hrs by MTT assay
# MCF7 = experiment: cells; type: functional, cell-based; conditions: Homo sapiens, MCF7, 48 h
# Description: Cytotoxicity against human MCF7 cells assessed as cell growth inhibition measured after 48 hrs by MTT assay
# Carbonic anhydrase 12 [3] = target: T3, Carbonic anhydrase 12 (Homo sapiens, UniProt O43570); conditions: time 6.0 hrs
# T3 sequence (O43570 whole entry): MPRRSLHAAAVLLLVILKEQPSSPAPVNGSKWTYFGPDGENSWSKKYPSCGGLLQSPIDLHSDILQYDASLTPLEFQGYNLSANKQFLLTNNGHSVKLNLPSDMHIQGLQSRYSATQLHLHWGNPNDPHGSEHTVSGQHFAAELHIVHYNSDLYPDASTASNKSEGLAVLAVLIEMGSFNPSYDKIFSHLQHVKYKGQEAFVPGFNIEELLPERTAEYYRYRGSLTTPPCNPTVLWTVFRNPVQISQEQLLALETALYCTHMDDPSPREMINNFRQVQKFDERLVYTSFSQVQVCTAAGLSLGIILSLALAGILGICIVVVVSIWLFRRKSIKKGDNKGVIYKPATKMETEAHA
# Carbonic anhydrase 1 [4] = target: T1, Carbonic anhydrase 1; remark: listed apart in the source
# Carbonic anhydrase 2 [5] = target: T2, Carbonic anhydrase 2; remark: listed apart in the source
# Carbonic anhydrase 9 = Carbonic anhydrase 9 (Homo sapiens, UniProt Q16790)
# Carbonic anhydrase 12 [6] = target: T3, Carbonic anhydrase 12
# Carbonic anhydrase 1 [7] = target: T1, Carbonic anhydrase 1; remark: listed apart in the source
# Carbonic anhydrase 2 [8] = target: T2, Carbonic anhydrase 2; remark: listed apart in the source
# Acetylcholinesterase = Acetylcholinesterase (Homo sapiens, UniProt P22303)
# Sequence of Acetylcholinesterase (P22303 whole entry): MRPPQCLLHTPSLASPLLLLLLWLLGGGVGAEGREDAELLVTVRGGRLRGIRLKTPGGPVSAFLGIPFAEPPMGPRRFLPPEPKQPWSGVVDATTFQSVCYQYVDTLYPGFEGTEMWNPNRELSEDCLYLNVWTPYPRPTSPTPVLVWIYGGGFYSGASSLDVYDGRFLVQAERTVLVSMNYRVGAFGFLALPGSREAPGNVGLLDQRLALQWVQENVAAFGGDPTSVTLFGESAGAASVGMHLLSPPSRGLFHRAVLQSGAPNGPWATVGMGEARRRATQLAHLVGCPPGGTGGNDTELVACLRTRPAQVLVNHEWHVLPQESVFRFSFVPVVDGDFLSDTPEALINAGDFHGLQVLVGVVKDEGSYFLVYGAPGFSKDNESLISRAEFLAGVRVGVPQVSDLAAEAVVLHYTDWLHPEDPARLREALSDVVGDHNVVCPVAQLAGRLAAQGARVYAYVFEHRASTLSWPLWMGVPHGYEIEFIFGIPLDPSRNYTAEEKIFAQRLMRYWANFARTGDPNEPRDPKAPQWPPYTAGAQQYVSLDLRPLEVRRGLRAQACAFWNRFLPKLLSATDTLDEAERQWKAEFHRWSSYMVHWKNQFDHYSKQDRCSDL
# in vitro [9] = conditions: human, corneal epithelial cell
# Description: Cytotoxicity against human Corneal epithelial cell assessed as cell growth inhibition at 1 % measured after 96 hrs by MTT assay relative to control
# Ca9-22 = experiment: cells; type: functional; conditions: Homo sapiens, time 48 hrs
# Description: Cytotoxicity against human Ca9-22 cells assessed as cell growth inhibition measured after 48 hrs by MTT assay
# HSC-2 = experiment: cells; type: functional; conditions: Homo sapiens, time 48 hrs
# Description: Cytotoxicity against human HSC-2 cells assessed as cell growth inhibition measured after 48 hrs by MTT assay
# Carbonic anhydrase 2 [10] = target: T2, Carbonic anhydrase 2; remark: listed apart in the source
# Carbonic anhydrase 1 [11] = target: T1, Carbonic anhydrase 1; remark: listed apart in the source
# in vitro [12] = conditions: human
# Description: Selectivity index, ratio of CC50 for cytotoxicity against HGF cells to CC50 for cytotoxicity against human Ca9-22 cells by MTT method
# in vitro [13] = conditions: human; remark: listed apart in the source
# Description: Selectivity index, ratio of CC50 for cytotoxicity against HPLF cells to CC50 for cytotoxicity against human Ca9-22 cells by MTT method
# in vitro [14] = conditions: human; remark: listed apart in the source
# Description: Selectivity index, ratio of CC50 for cytotoxicity against HGF cells to CC50 for cytotoxicity against human HSC-2 cells by MTT method
# in vitro [15] = conditions: human; remark: listed apart in the source
# Description: Selectivity index, ratio of CC50 for cytotoxicity against HPLF cells to CC50 for cytotoxicity against human HSC-2 cells by MTT method
# [16] = target: Carbonic anhydrase 5A, mitochondrial (Homo sapiens, UniProt P35218)
# Sequence of Carbonic anhydrase 5A, mitochondrial (P35218 whole entry): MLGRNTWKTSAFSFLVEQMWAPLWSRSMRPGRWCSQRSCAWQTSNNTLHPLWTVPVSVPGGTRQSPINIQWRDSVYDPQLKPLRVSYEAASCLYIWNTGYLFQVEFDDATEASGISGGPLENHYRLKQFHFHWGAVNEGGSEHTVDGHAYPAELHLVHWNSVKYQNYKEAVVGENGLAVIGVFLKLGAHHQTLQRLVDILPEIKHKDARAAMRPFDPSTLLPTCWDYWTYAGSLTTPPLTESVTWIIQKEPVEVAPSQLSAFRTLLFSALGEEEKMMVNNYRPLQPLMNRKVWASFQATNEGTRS
# Carbonic anhydrase 4 = Carbonic anhydrase 4 (Homo sapiens, UniProt P22748)
# Sequence of Carbonic anhydrase 4 (P22748 whole entry): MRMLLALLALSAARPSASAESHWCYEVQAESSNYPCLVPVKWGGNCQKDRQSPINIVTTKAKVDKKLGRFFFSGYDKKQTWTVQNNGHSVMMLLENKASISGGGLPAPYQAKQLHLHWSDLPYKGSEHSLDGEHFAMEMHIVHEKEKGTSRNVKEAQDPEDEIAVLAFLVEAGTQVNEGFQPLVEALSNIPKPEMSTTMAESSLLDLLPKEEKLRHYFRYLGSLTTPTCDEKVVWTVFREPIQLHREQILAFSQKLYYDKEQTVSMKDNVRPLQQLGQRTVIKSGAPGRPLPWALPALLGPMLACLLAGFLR
# T1 sequence (P00915 whole entry): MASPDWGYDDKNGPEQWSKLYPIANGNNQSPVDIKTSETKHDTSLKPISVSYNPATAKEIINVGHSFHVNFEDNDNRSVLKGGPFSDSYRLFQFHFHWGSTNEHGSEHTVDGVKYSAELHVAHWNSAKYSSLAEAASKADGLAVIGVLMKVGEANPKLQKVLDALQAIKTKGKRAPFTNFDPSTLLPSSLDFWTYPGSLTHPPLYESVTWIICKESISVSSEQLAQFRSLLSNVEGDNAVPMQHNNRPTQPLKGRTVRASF
structure (smiles),measurement,setting,value
CN1CCN(CN2C(=O)C(=O)c3ccccc32)CC1,Ki,Carbonic anhydrase 1 [1],8.57 nM
same,Ki,Carbonic anhydrase 2 [2],5.02 nM
O=S1(=O)C=Cc2cc(-c3nnnn3-c3ccc(F)c(Cl)c3)ccc2O1,IC50,HT-1080,7900 nM
same,IC50,SH-SY5Y,18400 nM
same,IC50,MCF7,1800 nM
O=S1(=O)CC=Cc2cc(-n3cc(-c4ccc(C(F)(F)F)cc4)nn3)ccc2O1,Kis,Carbonic anhydrase 12 [3],0.64 µM
C[C@@H]1O[C@H](NC(=O)c2ccc(S(N)(=O)=O)cc2)[C@H](O)[C@H](O)[C@H]1O,IC50,Carbonic anhydrase 1 [4],1800 nM
same,Ki,Carbonic anhydrase 2 [5],0.009 nM
O=S1(=O)C=Cc2cc(-n3cc(-c4ccc(Cl)cc4)nn3)ccc2O1,IC50,HT-1080,7900 nM
same,IC50,SH-SY5Y,18400 nM
same,IC50,MCF7,1800 nM
same,Ki,Carbonic anhydrase 9,6.9 nM
same,Ki,Carbonic anhydrase 12 [6],5.4 nM
NS(=O)(=O)c1ccc(N2N=C(c3cccs3)CC2c2ccc(Br)cc2)cc1 (stereo not drawn),Ki,Carbonic anhydrase 1 [7],25.6 nM
same,Ki,Carbonic anhydrase 2 [8],37.3 nM
same,Ki,Acetylcholinesterase,80.6 nM
NS(=O)(=O)c1ccc(C(=O)N[C@@H]2O[C@H](CO)[C@@H](O)[C@H](O)[C@@H]2O)cc1,Ki,Carbonic anhydrase 2 [5],0.009 nM
same,"inhibition at 96 h, 1 %",in vitro [9],74%
O=C1C(=O)N(CN2CCOCC2)c2ccccc21,Ki,Carbonic anhydrase 1 [1],8.57 nM
same,Ki,Carbonic anhydrase 2 [2],5.02 nM
Nc1ccc2c(c1)C=CCS(=O)(=O)O2,Kis,Carbonic anhydrase 12 [3],0.64 µM
O=[N+]([O-])c1ccc2c(c1)C=CCS(=O)(=O)O2,Kis,Carbonic anhydrase 12 [3],0.64 µM
NS(=O)(=O)c1ccc(C(=O)N[C@@H]2OC[C@@H](O)[C@H](O)[C@H]2O)cc1,"inhibition at 96 h, 1 %",in vitro [9],74%
COc1cc(C2CC(c3ccc(F)cc3)=NN2c2ccc(S(N)(=O)=O)cc2)cc(OC)c1OC (stereo not drawn),CC50,Ca9-22,6300 nM
same,CC50,HSC-2,7300 nM
same,Ki,Carbonic anhydrase 2 [10],0.089 nM
same,Ki,Carbonic anhydrase 1 [11],> 230 nM
same,Ki,Carbonic anhydrase 9,> 44 nM
same,Ki,Carbonic anhydrase 12 [6],> 9 nM
same,selectivity ratio,in vitro [12],1.1
same,selectivity ratio,in vitro [13],1.1
same,selectivity ratio,in vitro [14],1.1
same,selectivity ratio,in vitro [15],1.1
CC(C)[C@@H](NC(=O)OCc1ccccc1)C(=O)NCCc1ccc(S(N)(=O)=O)cc1,Ki,[16],58.7 nM
O=S1(=O)C=Cc2cc(-c3nnnn3-c3ccccc3)ccc2O1,IC50,HT-1080,7900 nM
same,IC50,SH-SY5Y,18400 nM
same,IC50,MCF7,1800 nM
same,Ki,Carbonic anhydrase 9,6.9 nM
same,Ki,Carbonic anhydrase 12 [6],5.4 nM
COC(=O)[C@H]1O[C@@H](O)[C@H](O)[C@@H](O)[C@@]1(O)S(=O)(=O)Nc1ccccc1C(N)=O,IC50,Carbonic anhydrase 1 [4],1800 nM
same,Ki,Carbonic anhydrase 2 [5],0.009 nM
same,"inhibition at 96 h, 1 %",in vitro [9],74%
COc1cc(S(N)(=O)=O)ccc1-c1nc(-c2cccc(F)c2)no1,Ki,Carbonic anhydrase 4,8.9 nM
